The results in this text go back to publication PMC4354731 (Biochimica et biophysica acta, 2013).

Experiment [1] concerns the target fumarate reductase (FrdABCD), FrdB subunit (Escherichia coli, UniProt P0A8Q0+P0A8Q3+P0AC47, P0AC47:K229R). The experiment can be described thus: biochemical.
The target in experiment [2] is fumarate reductase (FrdABCD), FrdB subunit (Escherichia coli, UniProt P0A8Q0+P0A8Q3+P0AC47, P0AC47:K229L). Put plainly: biochemical.
In experiment [3] the target is fumarate reductase (FrdABCD), FrdB subunit (Escherichia coli, UniProt P0A8Q0+P0A8Q3+P0AC47, P0AC47:K229E). The experiment can be described thus: biochemical.
In experiment [4] the target is fumarate reductase (FrdABCD), FrdB subunit (Escherichia coli, UniProt P0A8Q0+P0A8Q3+P0AC47, P0AC47:S204R). The experiment can be described thus: biochemical.
In experiment [5] the target is fumarate reductase (FrdABCD), FrdB subunit (Escherichia coli, UniProt P0A8Q0+P0A8Q3+P0AC47). The experiment can be described thus: fluorescence quench titration in enriched membranes. In kind it is binding.

Consider `CCCCCCCc1cc(O)c2ccccc2[n+]1[O-]` [HOQNO, 2-n-heptyl-4-hyroxyquinoline-N-oxide], for which the Kd (as a rule, the constant that tells how readily two partners part at equilibrium) in experiment [1] was 80 nM; in experiment [2] it was 110 nM; in experiment [3] it was 110 nM; in experiment [4], 5 nM; in experiment [5] it was 5 nM.
